{"source": "paper PMC8434109", "about": "“Synthesis and Biological Activity of a Cytostatic Inhibitor of MLLr Leukemia Targeting the DOT1L Protein” (Molecules, 2021)", "key": {"PRMT4": {"target": "T1, PRMT4 (Homo sapiens, UniProt Q86X55)", "T1 construct": "purchased Reaction Biology", "T1 sequence (Q86X55 1-608)": "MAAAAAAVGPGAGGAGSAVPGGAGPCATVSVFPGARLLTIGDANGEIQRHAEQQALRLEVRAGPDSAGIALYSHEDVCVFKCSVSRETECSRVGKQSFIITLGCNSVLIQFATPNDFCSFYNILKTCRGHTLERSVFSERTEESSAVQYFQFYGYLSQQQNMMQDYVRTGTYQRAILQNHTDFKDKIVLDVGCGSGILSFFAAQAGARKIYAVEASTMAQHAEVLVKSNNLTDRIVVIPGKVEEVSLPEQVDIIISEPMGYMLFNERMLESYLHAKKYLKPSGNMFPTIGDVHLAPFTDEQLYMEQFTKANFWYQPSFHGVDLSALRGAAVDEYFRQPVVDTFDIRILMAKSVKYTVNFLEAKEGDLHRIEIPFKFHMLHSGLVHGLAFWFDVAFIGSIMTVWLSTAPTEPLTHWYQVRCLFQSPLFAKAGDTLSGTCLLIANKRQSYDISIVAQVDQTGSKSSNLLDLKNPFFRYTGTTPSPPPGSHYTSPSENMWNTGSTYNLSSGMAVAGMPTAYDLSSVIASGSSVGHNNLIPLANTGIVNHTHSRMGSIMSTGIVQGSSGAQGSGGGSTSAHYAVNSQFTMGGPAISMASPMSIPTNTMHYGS", "experiment": "HMT selectivity panel (Reaction Biology)", "type": "biochemical", "details": "substrate Histone H3, read-out: Enzyme % Activity (relative to DMSO controls)", "experimental": "(§1) Table S1: Selectivity of the compound on a HMT panel (by Reaction Biology, USA) and on hDNMT3Acat (as described in Ceccaldi\n(§2) Enzyme % Activity (relative to DMSO\n(§3) Testing Concentration 10µM\n(§4) Methyltransferase: Substrate: Activity enzyme in %"}, "G9a": {"target": "T2, G9a (Homo sapiens, UniProt Q96KQ7)", "T2 construct": "purchased Reaction Biology", "T2 sequence (Q96KQ7 1-1210)": "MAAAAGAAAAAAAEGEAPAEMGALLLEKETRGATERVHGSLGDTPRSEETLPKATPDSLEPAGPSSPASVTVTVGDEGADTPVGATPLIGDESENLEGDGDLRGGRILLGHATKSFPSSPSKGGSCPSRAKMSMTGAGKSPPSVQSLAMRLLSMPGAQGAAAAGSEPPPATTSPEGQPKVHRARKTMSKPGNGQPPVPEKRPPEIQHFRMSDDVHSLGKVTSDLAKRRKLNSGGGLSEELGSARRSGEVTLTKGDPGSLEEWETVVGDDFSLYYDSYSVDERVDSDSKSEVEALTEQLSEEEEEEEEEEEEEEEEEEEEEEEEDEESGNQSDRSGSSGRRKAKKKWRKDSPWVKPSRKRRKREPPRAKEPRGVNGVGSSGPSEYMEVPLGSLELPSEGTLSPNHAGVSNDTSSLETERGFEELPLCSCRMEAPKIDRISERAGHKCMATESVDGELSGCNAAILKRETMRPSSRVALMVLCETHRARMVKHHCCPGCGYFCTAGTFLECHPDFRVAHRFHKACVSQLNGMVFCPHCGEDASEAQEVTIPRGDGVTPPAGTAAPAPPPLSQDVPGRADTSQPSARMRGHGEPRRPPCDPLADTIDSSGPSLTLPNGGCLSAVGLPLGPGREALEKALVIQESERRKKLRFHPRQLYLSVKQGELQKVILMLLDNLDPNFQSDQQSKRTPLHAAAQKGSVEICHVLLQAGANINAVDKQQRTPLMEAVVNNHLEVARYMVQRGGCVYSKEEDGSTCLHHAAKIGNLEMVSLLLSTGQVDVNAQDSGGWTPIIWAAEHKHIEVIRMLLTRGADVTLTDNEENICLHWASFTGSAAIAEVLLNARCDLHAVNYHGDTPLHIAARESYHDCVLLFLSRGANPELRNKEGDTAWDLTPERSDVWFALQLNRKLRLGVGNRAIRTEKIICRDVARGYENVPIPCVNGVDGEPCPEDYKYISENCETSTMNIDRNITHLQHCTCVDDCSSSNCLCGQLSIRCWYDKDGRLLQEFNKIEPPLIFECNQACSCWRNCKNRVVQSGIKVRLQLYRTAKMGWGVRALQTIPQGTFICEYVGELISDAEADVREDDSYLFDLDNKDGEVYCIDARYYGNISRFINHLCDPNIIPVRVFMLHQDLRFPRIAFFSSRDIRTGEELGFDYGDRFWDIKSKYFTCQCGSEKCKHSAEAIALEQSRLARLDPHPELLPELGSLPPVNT", "experiment": "HMT selectivity panel (Reaction Biology)", "type": "biochemical", "details": "substrate Histone H3 1-21, read-out: Enzyme % Activity (relative to DMSO controls)", "experimental": "as §1, §2, §3, §4"}}}
{"compound": "CC(C)[C@H](CCCNC(=O)Nc1ccc(C(C)(C)C)cc1)N[C@H]1C[C@@H](n2cnc3c(N)ncnc32)[C@H](O)[C@@H]1O", "note": "[Dia2, 1-((S)-4-(((1S,2R,3S,4R)-4-(6-amino-9H-purin-9-yl)-2,3-dihydroxycyclopentyl)amino)-5-methylhexyl)-3-(4-(tert-butyl)phenyl)urea]", "values": [{"measurement": "remaining activity at 10 µM", "setting": "PRMT4", "value": "92 ± 1", "unit": "%"}, {"measurement": "remaining activity at 10 µM", "setting": "G9a", "value": "97 ± 1", "unit": "%"}]}
